Measurements from ChEMBL document CHEMBL3886494, “2′-cyano substituted nucleoside derivatives and methods of use thereof for the treatment of viral diseases” (2016).

target: Genome polyprotein (Hepatitis C virus genotype 1b (isolate BK) (HCV), UniProt P26663); assay: Inhibition Assay: To measure inhibition of the enzymatic activity of the HCV NS5B RNA-dependent RNA polymerase by the nucleoside triphosphate compounds of the present invention, a radiolabeled nucleotide incorporation assay was used. This assay is a modified version of the assay described in International Publication No. WO2002/057287. Briefly, 50 uL reactions containing 20 mM HEPES (pH 7.3); 7.5 mM DTT; 20 units/ml RNasIN; 1 uM each of ATP, GTP, UTP and CTP; 20 uCi/mL [33P]-CTP; 10 mM MgCl; 60 mM NaCl; 100 ug/ml BSA; 0.021 uM DCoH heteropolymer RNA template; and 5 nM NS5B (1b-BKΔ55) enzyme were incubated at room temperature for 1 hour. The assay was then terminated by the addition of 500 mM EDTA (50 uL). The reaction mixture was transferred to a Millipore DE81 filter plate and the incorporation of labeled CTP is determined using Packard TopCount. Compound IC50 values can then be calculated from experiments with 10 serial 3-fold dilutions of the inhibitor in duplicate.
Sequence (P26663 2420-3010 limits assumed): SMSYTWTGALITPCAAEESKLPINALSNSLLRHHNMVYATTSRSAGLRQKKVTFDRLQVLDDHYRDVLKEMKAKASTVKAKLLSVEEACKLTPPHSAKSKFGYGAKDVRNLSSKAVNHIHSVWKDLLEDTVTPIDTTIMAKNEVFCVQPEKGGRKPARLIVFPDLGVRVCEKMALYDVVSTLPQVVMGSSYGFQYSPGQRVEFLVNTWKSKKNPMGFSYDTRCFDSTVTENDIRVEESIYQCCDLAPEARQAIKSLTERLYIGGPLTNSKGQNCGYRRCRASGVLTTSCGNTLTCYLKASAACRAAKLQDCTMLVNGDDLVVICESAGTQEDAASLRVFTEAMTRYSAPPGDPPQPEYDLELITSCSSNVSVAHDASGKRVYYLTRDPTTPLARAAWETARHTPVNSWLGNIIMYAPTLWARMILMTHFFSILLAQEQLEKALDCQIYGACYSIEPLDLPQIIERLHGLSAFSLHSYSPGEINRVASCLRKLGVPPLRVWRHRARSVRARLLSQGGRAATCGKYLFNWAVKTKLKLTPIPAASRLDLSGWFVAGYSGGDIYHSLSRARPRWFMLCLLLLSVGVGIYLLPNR

Q: How did the IC50 turn out when `C[C@@]1(C#N)[C@H](O)[C@@H](COP(=O)(O)OP(=O)(O)OP(=O)(O)O)O[C@H]1c1ccc2c(N)ncnn12` was run?
A: 3 nM

Q: Which IC50 does the source give for `C[C@@]1(C#N)[C@@H](c2cnc3c(N)ncnn23)O[C@@H](COP(=O)(O)OP(=O)(O)OP(=O)(O)O)[C@@H]1O` here?
A: 50 nM

Q: `C[C@]1(C#N)[C@H](O)[C@H](COP(=O)(O)OP(=O)(O)OP(=O)(O)O)O[C@]1(C#N)c1ccc2c(N)ncnn12` was tested. Which IC50 did it give?
A: 1200 nM

Q: With `CC1(C#N)[C@@H](O)[C@H](COP(=O)(O)OP(=O)(O)OP(=O)(O)O)O[C@]1(C#N)c1cnc2c(=O)[nH]cnn12` (some centres not stated) as the compound, how does the IC50 read?
A: > 200000 nM

Q: `CO[C@]1(c2cnc3c(N)ncnn23)O[C@@H](COP(=O)(O)OP(=O)(O)OP(=O)(O)O)[C@H](O)C1(C)C#N` (some centres not stated) was tested. Which IC50 did it give?
A: 3800 nM

Q: How did the IC50 turn out when `CO[C@]1(c2ccc3c(N)ncnn23)O[C@@H](COP(=O)(O)OP(=O)(O)OP(=O)(O)O)[C@H](O)[C@]1(C)C#N` was run?
A: 87 nM

Q: With `CC1(C#N)[C@H](O)[C@@H](COP(=O)(O)OP(=O)(O)OP(=O)(O)O)O[C@@]1(C#N)c1cnc2c(N)ncnn12` (some centres not stated) as the compound, how does the IC50 read?
A: 87000 nM
